Patent US12502374B2, “Composition for preventing, alleviating, or treating inflammatory disease containing isookanin or salt thereof as active ingredient” (BioSpectrum, Inc., priority 2020, dated 2025)

Target: T1, recombinant kallikrein-5 (Homo sapiens, UniProt Q9Y337)
T1 construct: purchased R&D Systems, USA
T1 sequence (Q9Y337 23-293): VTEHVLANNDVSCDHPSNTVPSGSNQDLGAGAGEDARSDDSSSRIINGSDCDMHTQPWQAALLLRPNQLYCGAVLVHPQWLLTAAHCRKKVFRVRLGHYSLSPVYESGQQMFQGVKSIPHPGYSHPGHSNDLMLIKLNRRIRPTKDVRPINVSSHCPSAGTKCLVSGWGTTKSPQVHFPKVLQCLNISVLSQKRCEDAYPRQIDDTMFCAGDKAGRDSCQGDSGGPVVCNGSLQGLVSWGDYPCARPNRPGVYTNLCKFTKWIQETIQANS
Test: Kallikrein-5 enzymatic activity, fluorescent substrate Boc-Val-Pro-Arg-AMC
Type: biochemical
Details: 10 and 20 ppm; FIG. 2
Description: To measure the enzymatic activity of kallikrein-5 which is a trypsin-like proteolytic enzyme present in skin keratinocytes, recombinant kallikrein-5 (R&D Systems, USA) was allowed to react with the fluorescently labeled substrate Boc-Val-Pro-Arg-AMC (R&D Systems, USA), and the enzymatic activity was measured. 50 μl of 2 μg/ml recombinant kallikrein-5 was treated with different concentrations (10 and 20 ppm) of isookanin and then allowed to react at room temperature for 10 minutes, and then 50 μl of 800 μM kallikrein-5 substrate was added thereto, followed by measurement in kinetic mode at 380 nm/480 nm fluorescence for 5 minutes. As a positive control, the trypsin inhibitor Leupeptin (Sigma Aldrich, USA) was used, and as a negative control, non-treated recombinant kallikrein was used. For evaluation of the degree of activity, based on the value obtained by subtracting the lowest fluorescence value from the highest fluorescence value among the measurement values under each condition, the fluorescence value of the group treated with isookanin was compared with the fluorescence value of the group not treated with isookanin, and the results are shown in FIG. 2.

O=C1C[C@@H](c2ccc(O)c(O)c2)Oc2c1ccc(O)c2O [isookanin]
inhibition of kallikrein-5 activity: inhibitory effect on kallikrein-5 activity in a concentration-dependent manner
